In patent US10766873B2, “Zuclopenthixol hydrochloride derivatives and Ebselen derivatives as ErbB2 inhibitors” (Centre National de la Recherche Scientifique (CNRS), priority 2016, dated 2020):

Legend:
[1] = tested on: EGFR/ErBB2 or ErbB3/ErbB2 heterodimers-dependent signalling pathways; test: Ligand-dependent ErbB2 activation (EGF or HRG) in HBMECs, western blot; format: cell-based; details: pre-treatment 1 h or 24 h
Protocol: In physiological conditions, ErbB2 activation occurs in heterodimer with the other ErbB family members, such as the EGFR in response to EGF stimulation or ErbB3 in response to heregulin (HRG) stimulation. We therefore addressed whether ZU, EB1 and their derivatives also affected the ligand-dependent physiological ErbB2 activation.
16 h-starved HBMECs cells were pre-treated or not for 1 h or 24 h with ZU, […] and their derivatives or AG1478 before EGF (50 ng/mL) or HRG1β (100 ng/mL) stimulation for 5 minutes. The activation of EGFR/ErBB2 or ErbB3/ErbB2 heterodimers-dependent signalling pathways was then analysed by western blot experiments using pAkt, Akt, pERK, ERK or 4G10 antibodies.

[2] = target: ErbB2 (Homo sapiens, UniProt P04626); test: ErbB2 phosphorylation in SKBR3 cells, dot blot (4G10); format: cell-based; set-up: endogenous in cells; host or cells: SKBR3
Protocol: The ability of ZU and EB1 and their derivatives to inhibit ErbB2 activity in cellulo on a commonly used ErbB2-overexpressing breast cancer cell line SKBR3 was analyzed. SKBR3 were treated 24 h with increasing concentrations of the compounds (0.625-80 μM) and ErbB2 phosphorylation was addressed by dot blot analysis using an anti-phosphotyrosine antibody (clone 4G10). Quantifications show the result of two independent experiments.

ErbB2, sequence (P04626 23-1255): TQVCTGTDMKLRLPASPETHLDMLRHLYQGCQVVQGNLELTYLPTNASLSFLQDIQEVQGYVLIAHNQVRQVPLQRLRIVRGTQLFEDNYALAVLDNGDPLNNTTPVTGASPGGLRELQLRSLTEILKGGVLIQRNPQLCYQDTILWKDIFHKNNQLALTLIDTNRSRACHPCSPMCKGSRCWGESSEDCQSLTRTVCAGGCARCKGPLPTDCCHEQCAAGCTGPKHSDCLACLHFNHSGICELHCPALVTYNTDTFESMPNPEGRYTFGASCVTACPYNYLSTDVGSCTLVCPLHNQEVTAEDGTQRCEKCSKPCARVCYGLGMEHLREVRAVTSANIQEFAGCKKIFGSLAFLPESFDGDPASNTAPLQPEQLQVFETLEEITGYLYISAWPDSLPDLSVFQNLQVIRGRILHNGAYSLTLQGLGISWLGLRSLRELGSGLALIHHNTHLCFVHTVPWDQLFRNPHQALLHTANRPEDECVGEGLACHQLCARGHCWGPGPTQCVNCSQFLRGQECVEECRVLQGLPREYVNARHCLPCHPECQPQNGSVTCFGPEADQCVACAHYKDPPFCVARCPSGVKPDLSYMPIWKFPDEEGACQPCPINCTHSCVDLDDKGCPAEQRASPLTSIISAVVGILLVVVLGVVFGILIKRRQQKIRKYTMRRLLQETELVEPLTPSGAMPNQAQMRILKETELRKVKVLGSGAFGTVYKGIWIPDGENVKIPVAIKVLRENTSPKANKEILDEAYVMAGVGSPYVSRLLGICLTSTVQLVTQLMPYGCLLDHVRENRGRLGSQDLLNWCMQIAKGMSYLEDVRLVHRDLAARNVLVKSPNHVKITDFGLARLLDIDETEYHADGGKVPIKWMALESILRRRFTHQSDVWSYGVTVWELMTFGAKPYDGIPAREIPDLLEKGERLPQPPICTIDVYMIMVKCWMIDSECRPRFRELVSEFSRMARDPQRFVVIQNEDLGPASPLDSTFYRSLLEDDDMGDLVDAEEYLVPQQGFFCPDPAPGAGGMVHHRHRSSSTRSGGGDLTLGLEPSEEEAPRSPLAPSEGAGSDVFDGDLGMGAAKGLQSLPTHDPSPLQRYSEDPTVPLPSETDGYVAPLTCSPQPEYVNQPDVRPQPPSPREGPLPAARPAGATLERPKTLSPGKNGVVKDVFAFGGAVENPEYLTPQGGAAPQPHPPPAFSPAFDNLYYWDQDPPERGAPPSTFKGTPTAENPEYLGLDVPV

| SMILES | ligand-dependent ErbB2 activation induced by EGF or HRG stimulation (in words) [1] | Emax ([2]; SK-BR-3, SKBR3, 24 h, 0.625-80 μM, read-out: ErbB2 activation 24 h Max inhibition, %) [%] | EC50 ([2]; SKBR3, 24 h, read-out: ErbB2 activation 24 h EC50) [µM] | reduction of ErbB2 phosphorylation ([2]; SKBR3, concentration of 10 μM) [%] |
| --- | --- | --- | --- | --- |
| COc1cc2ncnc(Nc3cccc(Cl)c3)c2cc1OC [AG1478] | strongly blocked |  |  |  |
| O=c1c2ccccc2[se]n1-c1ccccc1 [EBa, reference compound] | did not block | 15.6 | 40.7 | 15 |
